Test results taken from US9309242B2, “Substituted pyrido[2,3-b]pyrazines as FGFR kinase inhibitors” (priority 2011, dated 2016).
Counter-ions that a name gives are not always drawn.

Tests used:
[1] = molecular target: Ba/F3-FGFR4-transfected cells (Homo sapiens, UniProt P22455); assay: Ba/F3-FGFR4 cellular proliferation assay, Alamar Blue; assay type: cell-based
Summary of the method: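 Fluorescence read-out (ex. 540 nm, em. 590 nm) of resazurin-based Alamar Blue after 4 h, following 24 h compound exposure of Ba/F3-FGFR4-transfected cells (20000/well) at 37° C, 5% CO2.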

[2] = test system: Ba/F3-FGFR3-transfected cells; assay: Ba/F3-FGFR3 (plus IL3) cellular proliferation assay, counterscreen with 10 ng/ml murine IL3; assay type: cell-based; conditions: plus IL3 (10 ng/ml murine IL3, counterscreen); read-out: BAF3-FGFR3 (PLUS IL3) pIC50 (converted)
Summary of the method: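 Read-out: resazurin-based Alamar Blue fluorescence (ex 540 nm, em 590 nm) after a 4 h dye incubation. FGFR3-transfected Ba/F3 cells, 20000 per well, are exposed to compound for 24 h at 37° C in RPMI-1640/10% FBS. Plus-IL3 counterscreen adds 10 ng/ml murine IL3.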

Ba/F3-FGFR4-transfected cells, sequence (P22455 whole entry, change not shown): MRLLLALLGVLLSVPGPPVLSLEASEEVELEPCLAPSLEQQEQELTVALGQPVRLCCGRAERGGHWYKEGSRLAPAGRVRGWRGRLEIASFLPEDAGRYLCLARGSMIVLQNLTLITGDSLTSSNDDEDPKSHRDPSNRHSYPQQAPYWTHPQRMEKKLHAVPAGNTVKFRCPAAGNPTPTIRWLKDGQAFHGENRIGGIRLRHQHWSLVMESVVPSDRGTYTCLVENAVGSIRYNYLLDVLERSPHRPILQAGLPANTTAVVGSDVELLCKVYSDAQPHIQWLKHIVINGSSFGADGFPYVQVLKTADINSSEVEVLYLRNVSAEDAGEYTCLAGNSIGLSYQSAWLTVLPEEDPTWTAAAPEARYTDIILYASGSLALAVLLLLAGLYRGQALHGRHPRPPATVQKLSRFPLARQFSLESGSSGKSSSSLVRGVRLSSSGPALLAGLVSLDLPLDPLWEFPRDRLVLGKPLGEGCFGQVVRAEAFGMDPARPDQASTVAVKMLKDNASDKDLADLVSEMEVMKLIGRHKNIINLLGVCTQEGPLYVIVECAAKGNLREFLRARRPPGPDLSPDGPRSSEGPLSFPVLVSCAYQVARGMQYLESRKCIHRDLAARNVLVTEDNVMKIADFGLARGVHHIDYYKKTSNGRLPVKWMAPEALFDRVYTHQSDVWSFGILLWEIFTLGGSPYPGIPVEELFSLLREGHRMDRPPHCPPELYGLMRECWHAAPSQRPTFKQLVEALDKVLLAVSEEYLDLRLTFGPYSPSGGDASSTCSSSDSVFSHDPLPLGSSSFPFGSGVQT

Row | SMILES | BAF3-FGFR4 pIC50 [1] | IC50 [2] [µM] | melting point [°C]
1 | COc1cc(OC)cc(N(Cc2ncc[nH]2)c2ccc3ncc(-c4cnn(C)c4)nc3n2)c1 (racemic) [24-DL-tartrate salt] | 7.62 | > 10 | –
2 | COc1cc(OC)cc(N(CC(O)C(F)(F)F)c2ccc3ncc(-c4cnn(C)c4)nc3n2)c1 (single isomer, unassigned) [Compound 33] | ~7.03 | > 10 | 208
3 | COCC(O)CN(c1ccc2ncc(-c3cnn(C)c3)nc2n1)c1cc(OC)cc(OC)c1F (single isomer, unassigned) [Compound 58] | 7.09 | > 10 | 94 to 95
4 | COc1cc(OC)c(F)c(N(CC(O)COC(C)C)c2ccc3ncc(-c4cnn(C)c4)nc3n2)c1 (single isomer, unassigned) [Compound 75] | 7.33 | > 10 | –
5 | COc1cc(OC)c(F)c(N(c2ccc3ncc(-c4cnn(C)c4)nc3n2)C(CO)COC(C)C)c1 (single isomer, unassigned) [Compound 76] | 5.20 | > 10 | 137 to 138
6 | COc1cc(/N=c2\ccc3ncc(-c4cnn(C)c4)nc3n2CC(O)COC(C)C)c(F)c(OC)c1 (single isomer, unassigned) [Compound 77] | 6.46 | > 10 | 96 to 97
7 | COc1cc(OC)c(Cl)c(/N=c2\ccc3ncc(-c4cnn(C)c4)nc3n2CC2CCC(=O)N2)c1Cl (single isomer, unassigned) [Compound 87] | 5.89 | > 10 | 160
8 | COc1cc(OC)c(Cl)c(N(CC2CCC(=O)N2)c2ccc3ncc(-c4cnn(C)c4)nc3n2)c1Cl (single isomer, unassigned) [Compound 88] | 5.65 | > 10 | –
9 | COc1ccc(Cl)c(/N=c2\ccc3ncc(-c4cnn(C)c4)nc3n2CC2CCC(=O)N2)c1Cl (single isomer, unassigned) [Compound 89] | <5 | > 10 | 183
10 | COc1cc(/N=c2\ccc3ncc(-c4cnn(C)c4)nc3n2CC2COC(=O)N2)c(F)c(OC)c1 (single isomer, unassigned) [Compound 112] | 6.67 | > 10 | –
11 | COc1cc(OC)c(F)c(N(Cc2ncc[nH]2)c2ccc3ncc(-c4cnn(C)c4)nc3n2)c1 [Compound 23] | 8.02 | > 10 | –
12 | COc1cc(OC)cc(N(Cc2ncc[nH]2)c2ccc3ncc(-c4cnn(C)c4)nc3n2)c1 [Compound 24] | 7.77 | > 10 | –
13 | COc1cc(OC)c(F)c(N(CCO)c2ccc3ncc(-c4cnn(C)c4)nc3n2)c1 [Compound 40] | 7.04 | > 10 | –
14 | COc1cc(OC)c(F)c(N(Cc2c[nH]cn2)c2ccc3ncc(-c4cnn(C)c4)nc3n2)c1 [Compound 41] | 7.47 | > 10 | –
15 | COc1cc(OC)c(Cl)c(N(Cc2ncc[nH]2)c2ccc3ncc(-c4cnn(C)c4)nc3n2)c1 [Compound 42] | 7.35 | > 10 | –
16 | COc1cc(OC)c(F)c(N(CC2CCC(=O)N2)c2ccc3ncc(-c4cnn(C)c4)nc3n2)c1 (stereo not shown) [Compound 46] | 6.76 | > 10 | –
17 | COc1cc(OC)c(F)c(N(CCCN2CCCC2=O)c2ccc3ncc(-c4cnn(C)c4)nc3n2)c1F [Compound 56] | 7.41 | > 10 | –
18 | COc1cc(OC)c(F)c(N(CC(O)COC(C)C)c2ccc3ncc(-c4cnn(C)c4)nc3n2)c1F (stereo not shown) [Compound 63] | 7.49 | > 10 | –
19 | COc1cc(OC)c(F)c(/N=c2\ccc3ncc(-c4cnn(C)c4)nc3n2CC(O)COC(C)C)c1F (stereo not shown) [Compound 64] | 7.52 | > 10 | –
20 | COc1ccc(Cl)c(N(Cc2ncc[nH]2)c2ccc3ncc(-c4cnn(C)c4)nc3n2)c1Cl [Compound 65] | 5.21 | > 10 | –
21 | COc1cc(OC)c(F)c(N(CCN)c2ccc3ncc(-c4cnn(C)c4)nc3n2)c1F [Compound 67] | 7.37 | > 10 | –
22 | COc1cc(OC)c(F)c(/N=c2\ccc3ncc(-c4cnn(C)c4)nc3n2CCN)c1F [Compound 68] | 7.14 | > 10 | –
23 | CNCCN(c1ccc2ncc(-c3cnn(C)c3)nc2n1)c1c(F)ccc(OC)c1Cl [Compound 69] | 6.11 | > 10 | –
24 | COc1ccc(F)c(N(Cc2ncc[nH]2)c2ccc3ncc(-c4cnn(C)c4)nc3n2)c1Cl [Compound 73] | 6.50 | > 10 | –
25 | CNCCN(c1ccc2ncc(-c3cnn(C)c3)nc2n1)c1c(Cl)c(OC)cc(OC)c1Cl [Compound 81] | 5.76 | > 10 | –
26 | CNCCN(c1ccc2ncc(-c3cnn(C)c3)nc2n1)c1c(Cl)ccc(OC)c1Cl [Compound 83] | <5 | > 10 | –
27 | CNCCn1/c(=N/c2c(Cl)ccc(OC)c2Cl)ccc2ncc(-c3cnn(C)c3)nc21 [Compound 84] | <5 | > 10 | –

Row | SMILES | BAF3-FGFR4 pIC50 [1] | IC50 [2] [µM] | melting point [°C]
28 | COc1cc(OC)c(F)c(N(Cc2nc[nH]n2)c2ccc3ncc(-c4cnn(C)c4)nc3n2)c1F [Compound 85] | 7.66 | > 10 | –
29 | COc1cc(OC)c(F)c(N(Cc2nc[nH]n2)c2ccc3ncc(-c4cnn(C)c4)nc3n2)c1 [Compound 86] | 7.33 | > 10 | –
30 | COc1ccc(Cl)c(/N=c2\ccc3ncc(-c4cnn(C)c4)nc3n2CC2CCC(=O)N2)c1Cl (stereo not shown) [Compound 92] | <5 | > 10 | –
31 | COc1cc(OC)c(Cl)c(N(Cc2ncc[nH]2)c2ccc3ncc(-c4cnn(C)c4)nc3n2)c1Cl [Compound 98] | 6.56 | > 10 | –
32 | COc1cc(OC)c(F)c(N(Cc2ncc[nH]2)c2ccc3ncc(-c4cnn(Cc5ncc[nH]5)c4)nc3n2)c1 [Compound 100] | 6.99 | > 10 | –
33 | COc1cc(OC)c(F)c(N(Cc2nc3c([nH]2)CCNC3)c2ccc3ncc(-c4cnn(C)c4)nc3n2)c1 [Compound 104] | 5.74 | > 10 | –
34 | CNCCN(c1ccc2ncc(-c3cn[nH]c3)nc2n1)c1c(F)c(OC)cc(OC)c1F [Compound 106] | ~6.65 | > 10 | –
35 | COc1cc(OC)c(F)c(N(Cc2nc[nH]c2C)c2ccc3ncc(-c4cnn(C)c4)nc3n2)c1 [Compound 109] | ~7.05 | > 10 | –
36 | COc1cc(OC)c(F)c(N(Cc2ccnn2C)c2ccc3ncc(-c4cnn(C)c4)nc3n2)c1 [Compound 113] | 6.63 | > 10 | –
37 | COc1cc(/N=c2\ccc3ncc(-c4cnn(C)c4)nc3n2Cc2ccnn2C)c(F)c(OC)c1 [Compound 114] | 7.14 | > 10 | –
38 | COc1cc(/N=c2\ccc3ncc(-c4cnn(C)c4)nc3n2Cc2cc[nH]n2)c(F)c(OC)c1 [Compound 115] | ~7.59 | > 10 | –
39 | COc1cc(OC)c(F)c(N(Cc2cc[nH]n2)c2ccc3ncc(-c4cnn(C)c4)nc3n2)c1 [Compound 118] | ~7.56 | > 10 | –
40 | COc1cc(/N=c2\ccc3ncc(-c4cnn(C)c4)nc3n2CCCN2CCCC2=O)c(F)c(OC)c1 [Compound 119] | 7.28 | > 3.98 | –
41 | COc1cc(OC)c(F)c(N(CCCN2CCCC2=O)c2ccc3ncc(-c4cnn(C)c4)nc3n2)c1 [Compound 120] | 6.84 | > 10 | –
42 | CNCCN(c1ccc2ncc(-c3cnn(C)c3)nc2n1)c1c(F)c(O)cc(OC)c1F [Compound 122] | 5.67 | > 10 | –
43 | COc1cc(/N=c2\ccc3ncc(-c4cnn(C)c4)nc3n2CC2COC(=O)N2)c(F)c(OC)c1 (stereo not shown) [Compound 123] | 6.62 | > 10 | –
44 | COc1cc(OC)c(F)c(N(CC2COC(=O)N2)c2ccc3ncc(-c4cnn(C)c4)nc3n2)c1 (stereo not shown) [Compound 124] | ~6.64 | > 10 | –
45 | COc1cc(OC)c(F)c(N(Cc2cn[nH]c2)c2ccc3ncc(-c4cnn(C)c4)nc3n2)c1 [Compound 125] | ~7.15 | > 10 | –
46 | COc1cc(OC)c(F)c(N(Cc2ccn(C)n2)c2ccc3ncc(-c4cnn(C)c4)nc3n2)c1 [Compound 128] | 7.12 | > 10 | –
47 | COc1cc(OC)c(F)c(N(Cc2nccn2C)c2ccc3ncc(-c4cnn(C)c4)nc3n2)c1 [Compound 131] | 6.62 | > 10 | –
48 | COc1cc(OC)c(F)c(N(Cc2nncn2C)c2ccc3ncc(-c4cnn(C)c4)nc3n2)c1 [Compound 132] | ~6.13 | > 10 | –
49 | COc1cc(OC)cc(N(CCCN2CCCC2=O)c2ccc3ncc(-c4cnn(C)c4)nc3n2)c1 [Compound 134] | 5.99 | > 10 | –
50 | COc1cc(OC)c(F)c(N(Cc2nc(C)c[nH]2)c2ccc3ncc(-c4cnn(C)c4)nc3n2)c1 [Compound 135] | 8.05 | > 10 | –
51 | COc1cc(OC)c(F)c(N(Cc2c[nH]c(C)n2)c2ccc3ncc(-c4cnn(C)c4)nc3n2)c1 [Compound 137] | 7.23 | > 10 | –
52 | COc1cc(OC)c(F)c(N(CC2CCC(=O)N2)c2ccc3ncc(-c4cnn(C)c4)nc3n2)c1F (stereo not shown) [Compound 192] | 7.01 | > 10 | –
53 | COc1cc(OC)c(F)c(/N=c2\ccc3ncc(-c4cnn(C)c4)nc3n2CC2CCC(=O)N2)c1F (stereo not shown) [Compound 193] | 7.00 | > 10 | –
